Earlier results in patent US10196371B2, “Compounds for the treatment of HPV-induced carcinoma” (Åbo Akademi, priority 2014, dated 2019).

Tests used:
[1] = tested on: HPV16 positive cervical cancer cells
[2] = tested on: E6 and E7

SMILES: C=C1C(=O)OC2/C=C(/C)CC/C=C(\C(=O)O)CC/C=C(\C)CCC12 (centres unmarked) [anisomelic acid]
- efficiency in inducing apoptosis [1]: good efficiency
- protein level expression of E6 and E7 [2]: inhibits
